In US9492471B2, “Methods of treating a disease or disorder associated with Bruton'S Tyrosine Kinase” (Celgene Avilomics Research, Inc., priority 2013, dated 2016):
Where two headings read alike, the source gives them in different places.

Experiments:
Assay in all cases: HotSpot kinase profiling
Type in all cases: biochemical
[1] = target: T1, ALK (Homo sapiens, UniProt Q9UM73)
T1 construct: purchased Reaction Biology Corp
Procedure, shortened: (§1)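 Percent inhibition, averaged when run more than once and referenced to a DMSO negative control, came from a radioactive filter-binding readout on P81 paper. Reactions of kinase with freshly made substrate and cofactors ran for 2 h at room temperature.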

[2] = target: T2, DAPK1 (Homo sapiens, UniProt P53355)
T2 construct: purchased Reaction Biology Corp
Procedure, shortened: as §1

[3] = target: T3, GCK/MAP4K2 (Homo sapiens, UniProt Q12851)
T3 construct: purchased Reaction Biology Corp
T3 sequence (Q12851 1-820): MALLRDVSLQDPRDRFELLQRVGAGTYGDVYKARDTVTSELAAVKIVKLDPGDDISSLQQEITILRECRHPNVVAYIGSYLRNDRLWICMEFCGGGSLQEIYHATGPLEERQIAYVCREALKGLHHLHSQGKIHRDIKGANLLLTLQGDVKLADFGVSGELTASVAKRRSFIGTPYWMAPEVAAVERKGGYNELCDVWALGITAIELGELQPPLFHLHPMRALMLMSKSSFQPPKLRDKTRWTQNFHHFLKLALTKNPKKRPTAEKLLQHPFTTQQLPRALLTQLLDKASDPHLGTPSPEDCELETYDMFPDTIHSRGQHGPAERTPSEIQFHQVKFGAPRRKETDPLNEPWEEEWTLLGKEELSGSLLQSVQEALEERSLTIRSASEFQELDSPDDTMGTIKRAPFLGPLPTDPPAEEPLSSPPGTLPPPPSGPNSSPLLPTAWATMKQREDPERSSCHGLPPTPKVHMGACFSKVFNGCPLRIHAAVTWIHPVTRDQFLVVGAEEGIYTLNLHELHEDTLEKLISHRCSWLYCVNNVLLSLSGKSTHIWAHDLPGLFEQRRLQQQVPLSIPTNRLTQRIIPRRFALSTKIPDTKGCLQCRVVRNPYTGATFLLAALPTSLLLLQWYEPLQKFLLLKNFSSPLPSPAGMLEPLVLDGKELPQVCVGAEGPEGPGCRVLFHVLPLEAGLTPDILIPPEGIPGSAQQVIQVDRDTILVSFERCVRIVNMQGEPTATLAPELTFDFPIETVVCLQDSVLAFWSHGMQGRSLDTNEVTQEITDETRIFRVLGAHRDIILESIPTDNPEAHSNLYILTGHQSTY
Procedure, shortened: as §1

[4] = target: T4, GRK2 (Homo sapiens, UniProt P25098)
T4 construct: purchased Reaction Biology Corp
T4 sequence (P25098 1-689): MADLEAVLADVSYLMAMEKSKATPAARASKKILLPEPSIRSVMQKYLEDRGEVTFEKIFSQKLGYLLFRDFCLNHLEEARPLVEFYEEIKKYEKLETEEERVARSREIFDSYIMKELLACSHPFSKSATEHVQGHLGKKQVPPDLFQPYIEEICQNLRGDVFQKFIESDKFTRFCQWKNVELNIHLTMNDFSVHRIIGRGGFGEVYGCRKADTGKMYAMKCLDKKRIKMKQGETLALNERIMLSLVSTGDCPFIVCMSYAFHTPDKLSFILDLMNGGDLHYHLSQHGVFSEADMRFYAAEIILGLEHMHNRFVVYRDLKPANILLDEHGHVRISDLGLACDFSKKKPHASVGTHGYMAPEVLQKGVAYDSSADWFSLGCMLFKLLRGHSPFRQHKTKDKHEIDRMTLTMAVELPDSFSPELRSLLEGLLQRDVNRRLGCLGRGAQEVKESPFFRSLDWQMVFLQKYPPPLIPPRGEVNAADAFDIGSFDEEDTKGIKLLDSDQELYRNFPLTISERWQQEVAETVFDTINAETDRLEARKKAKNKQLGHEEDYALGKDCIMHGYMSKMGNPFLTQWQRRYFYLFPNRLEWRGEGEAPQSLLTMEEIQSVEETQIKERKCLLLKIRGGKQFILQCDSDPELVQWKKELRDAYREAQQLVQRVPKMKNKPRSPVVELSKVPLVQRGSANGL
Procedure, shortened: as §1

[5] = target: T5, GSK3b (Homo sapiens, UniProt P49841)
T5 construct: purchased Reaction Biology Corp
Procedure, shortened: as §1

[6] = target: T6, PIM2 (Homo sapiens, UniProt Q9P1W9)
T6 construct: purchased Reaction Biology Corp
Procedure, shortened: as §1

[7] = target: T7, SGK1 (Homo sapiens, UniProt O00141)
T7 construct: purchased Reaction Biology Corp
T7 sequence (O00141 1-431): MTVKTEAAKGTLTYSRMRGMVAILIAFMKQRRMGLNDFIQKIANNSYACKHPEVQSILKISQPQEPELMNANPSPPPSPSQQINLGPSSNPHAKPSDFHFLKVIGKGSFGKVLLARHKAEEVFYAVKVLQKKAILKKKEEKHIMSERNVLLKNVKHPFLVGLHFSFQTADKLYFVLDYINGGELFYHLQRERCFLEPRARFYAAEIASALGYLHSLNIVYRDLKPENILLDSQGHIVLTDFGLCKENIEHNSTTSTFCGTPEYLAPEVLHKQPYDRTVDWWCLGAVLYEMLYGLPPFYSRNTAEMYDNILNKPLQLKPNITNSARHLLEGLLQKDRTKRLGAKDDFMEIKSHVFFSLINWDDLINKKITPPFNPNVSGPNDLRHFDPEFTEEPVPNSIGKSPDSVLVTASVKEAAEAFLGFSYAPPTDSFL
Procedure, shortened: as §1

[8] = read-out: % Enzyme Activity (relative to DMSO controls) Run 1
[9] = read-out: % Enzyme Activity (relative to DMSO controls) Run 2

T2 sequence (P53355 whole entry): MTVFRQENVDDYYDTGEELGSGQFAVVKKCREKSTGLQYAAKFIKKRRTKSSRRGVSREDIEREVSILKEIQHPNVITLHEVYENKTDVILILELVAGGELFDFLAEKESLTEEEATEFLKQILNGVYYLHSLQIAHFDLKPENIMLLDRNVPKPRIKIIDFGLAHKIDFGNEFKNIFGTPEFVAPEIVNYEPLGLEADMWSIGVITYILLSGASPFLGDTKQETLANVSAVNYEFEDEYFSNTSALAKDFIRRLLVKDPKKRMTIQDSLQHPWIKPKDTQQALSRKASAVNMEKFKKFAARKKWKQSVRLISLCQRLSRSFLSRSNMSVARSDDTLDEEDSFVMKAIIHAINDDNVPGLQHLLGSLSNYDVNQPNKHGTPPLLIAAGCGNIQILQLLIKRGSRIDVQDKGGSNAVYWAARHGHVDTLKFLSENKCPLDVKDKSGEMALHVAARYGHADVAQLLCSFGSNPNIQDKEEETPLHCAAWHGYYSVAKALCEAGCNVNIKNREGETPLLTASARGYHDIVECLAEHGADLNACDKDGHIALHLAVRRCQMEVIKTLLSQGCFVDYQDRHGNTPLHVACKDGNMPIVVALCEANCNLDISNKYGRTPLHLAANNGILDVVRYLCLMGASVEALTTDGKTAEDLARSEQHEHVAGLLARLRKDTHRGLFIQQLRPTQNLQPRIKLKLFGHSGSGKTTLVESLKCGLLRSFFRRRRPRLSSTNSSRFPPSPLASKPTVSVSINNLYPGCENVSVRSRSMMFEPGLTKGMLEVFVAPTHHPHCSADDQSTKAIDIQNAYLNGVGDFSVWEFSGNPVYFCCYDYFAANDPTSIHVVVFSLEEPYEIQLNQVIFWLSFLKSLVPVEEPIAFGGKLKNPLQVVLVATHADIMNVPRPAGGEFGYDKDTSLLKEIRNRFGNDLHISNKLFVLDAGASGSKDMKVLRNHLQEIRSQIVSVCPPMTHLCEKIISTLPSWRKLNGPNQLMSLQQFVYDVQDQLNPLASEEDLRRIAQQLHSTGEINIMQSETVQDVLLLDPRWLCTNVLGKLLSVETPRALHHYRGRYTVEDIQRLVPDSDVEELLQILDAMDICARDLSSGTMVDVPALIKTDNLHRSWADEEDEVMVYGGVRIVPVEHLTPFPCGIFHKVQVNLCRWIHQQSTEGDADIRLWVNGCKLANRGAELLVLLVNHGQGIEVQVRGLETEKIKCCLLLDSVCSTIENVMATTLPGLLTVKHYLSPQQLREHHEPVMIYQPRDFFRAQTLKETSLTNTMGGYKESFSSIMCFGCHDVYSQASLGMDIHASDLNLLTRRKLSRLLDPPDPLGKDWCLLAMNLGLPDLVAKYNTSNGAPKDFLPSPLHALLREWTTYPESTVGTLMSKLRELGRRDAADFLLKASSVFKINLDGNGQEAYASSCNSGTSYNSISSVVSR
T6 sequence (Q9P1W9 whole entry): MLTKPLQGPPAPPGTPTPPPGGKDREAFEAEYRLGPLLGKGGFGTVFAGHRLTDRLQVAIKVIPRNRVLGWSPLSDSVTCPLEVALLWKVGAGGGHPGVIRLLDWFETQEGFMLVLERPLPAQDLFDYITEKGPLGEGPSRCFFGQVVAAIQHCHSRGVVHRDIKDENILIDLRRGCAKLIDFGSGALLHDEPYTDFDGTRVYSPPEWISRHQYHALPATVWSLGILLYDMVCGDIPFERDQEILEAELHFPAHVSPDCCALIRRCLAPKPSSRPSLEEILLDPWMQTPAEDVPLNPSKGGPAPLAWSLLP
T1 sequence (Q9UM73 19-1620): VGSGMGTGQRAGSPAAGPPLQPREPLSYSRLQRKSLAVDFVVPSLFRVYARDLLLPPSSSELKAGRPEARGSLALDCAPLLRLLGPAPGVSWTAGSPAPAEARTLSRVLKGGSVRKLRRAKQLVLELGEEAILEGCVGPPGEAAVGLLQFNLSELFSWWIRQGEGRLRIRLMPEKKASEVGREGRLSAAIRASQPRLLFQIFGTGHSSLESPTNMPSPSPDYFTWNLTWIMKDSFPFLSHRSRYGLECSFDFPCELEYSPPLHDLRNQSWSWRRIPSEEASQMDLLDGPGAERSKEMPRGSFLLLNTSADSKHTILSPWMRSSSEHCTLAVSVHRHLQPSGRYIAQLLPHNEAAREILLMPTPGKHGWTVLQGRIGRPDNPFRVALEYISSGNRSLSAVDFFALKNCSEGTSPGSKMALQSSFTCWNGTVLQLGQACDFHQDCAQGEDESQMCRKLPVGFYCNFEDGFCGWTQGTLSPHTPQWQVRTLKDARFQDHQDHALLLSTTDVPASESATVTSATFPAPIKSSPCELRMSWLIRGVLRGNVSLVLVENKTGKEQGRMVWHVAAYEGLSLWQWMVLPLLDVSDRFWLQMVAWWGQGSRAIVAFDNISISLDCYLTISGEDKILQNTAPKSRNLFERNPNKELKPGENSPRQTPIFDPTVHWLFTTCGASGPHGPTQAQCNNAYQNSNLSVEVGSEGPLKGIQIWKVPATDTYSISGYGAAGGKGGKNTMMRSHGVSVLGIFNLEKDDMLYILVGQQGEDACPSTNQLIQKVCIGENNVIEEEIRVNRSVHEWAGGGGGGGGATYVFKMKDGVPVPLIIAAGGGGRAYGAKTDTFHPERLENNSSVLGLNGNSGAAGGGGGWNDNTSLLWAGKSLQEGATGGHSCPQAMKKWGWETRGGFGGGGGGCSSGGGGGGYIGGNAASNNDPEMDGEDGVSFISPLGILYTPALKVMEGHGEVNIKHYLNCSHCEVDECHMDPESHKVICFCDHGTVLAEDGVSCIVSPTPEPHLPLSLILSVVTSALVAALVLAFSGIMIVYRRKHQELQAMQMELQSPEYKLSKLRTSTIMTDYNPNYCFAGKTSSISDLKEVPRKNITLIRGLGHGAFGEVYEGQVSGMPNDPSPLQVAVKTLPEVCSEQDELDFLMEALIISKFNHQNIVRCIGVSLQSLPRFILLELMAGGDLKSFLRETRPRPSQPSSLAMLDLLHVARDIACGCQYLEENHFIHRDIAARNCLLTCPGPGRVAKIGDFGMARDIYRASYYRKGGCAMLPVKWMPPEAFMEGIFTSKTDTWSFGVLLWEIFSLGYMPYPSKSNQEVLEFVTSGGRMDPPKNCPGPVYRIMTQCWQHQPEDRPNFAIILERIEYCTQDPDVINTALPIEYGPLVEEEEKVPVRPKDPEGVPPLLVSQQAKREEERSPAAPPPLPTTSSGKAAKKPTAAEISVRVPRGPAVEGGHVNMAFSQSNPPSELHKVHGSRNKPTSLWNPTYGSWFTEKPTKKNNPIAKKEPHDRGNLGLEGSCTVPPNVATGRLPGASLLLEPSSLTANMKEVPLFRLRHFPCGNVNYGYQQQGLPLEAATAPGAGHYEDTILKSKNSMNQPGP
T5 sequence (P49841 whole entry): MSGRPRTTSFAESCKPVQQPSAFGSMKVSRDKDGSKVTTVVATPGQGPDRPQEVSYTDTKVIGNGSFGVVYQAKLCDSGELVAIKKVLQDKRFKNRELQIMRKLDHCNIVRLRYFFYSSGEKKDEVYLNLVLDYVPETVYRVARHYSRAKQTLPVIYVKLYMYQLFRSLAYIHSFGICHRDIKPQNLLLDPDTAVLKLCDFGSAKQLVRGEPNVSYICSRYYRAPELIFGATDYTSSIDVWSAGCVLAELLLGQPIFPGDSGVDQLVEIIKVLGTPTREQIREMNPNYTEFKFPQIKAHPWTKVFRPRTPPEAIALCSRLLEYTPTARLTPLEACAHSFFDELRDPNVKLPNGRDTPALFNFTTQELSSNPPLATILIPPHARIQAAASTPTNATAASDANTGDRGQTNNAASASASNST

C=CC(=O)Nc1cccc(Nc2nc(Nc3ccc(OCCOC)c(F)c3)ncc2F)c1 [Compound 2]
inhibition at 3 µM [1]: 16.9% | remaining activity at 3 µM [1, 8]: 82.5% | remaining activity at 3 µM [1, 9]: 83.6% | inhibition at 3 µM [2]: 1.86% | remaining activity at 3 µM [2, 8]: 103% | remaining activity at 3 µM [2, 9]: 93.5% | inhibition at 3 µM [3]: -0.14% | remaining activity at 3 µM [3, 8]: 100% | remaining activity at 3 µM [3, 9]: 100% | inhibition at 3 µM [4]: -4.03% | remaining activity at 3 µM [4, 8]: 104% | remaining activity at 3 µM [4, 9]: 104% | inhibition at 3 µM [5]: -22.2% | remaining activity at 3 µM [5, 8]: 122% | remaining activity at 3 µM [5, 9]: 123% | inhibition at 3 µM [6]: -32.5% | remaining activity at 3 µM [6, 8]: 136% | remaining activity at 3 µM [6, 9]: 129% | inhibition at 3 µM [7]: 0.37% | remaining activity at 3 µM [7, 8]: 99.7% | remaining activity at 3 µM [7, 9]: 99.5%
